#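 48-hour exposure; five concentrations; linearly interpolated endpoints. GI50 marks 50% less growth. Definition used: TGI = concentration required for complete inhibition of growth.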
# Tests used:
# Assay in all cases: growth of human tumour cells (NCI), 48 h
# HOP-62 NSCLC = system: HOP-62 NSCLC
# NCI-H460 lung = system: NCI-H460 lung
# CAKI-1 renal = system: CAKI-1 renal
# MOLT-4 leukemia = system: MOLT-4 leukemia
# SK-MEL-2 melanoma = system: SK-MEL-2 melanoma
# BT-549 breast = system: BT-549 breast
# U251 CNS = system: U251 CNS
# RXF 393 renal = system: RXF 393 renal
# SN12C renal = system: SN12C renal
# UACC-257 melanoma = system: UACC-257 melanoma
# SNB-75 CNS = system: SNB-75 CNS
# HOP-92 NSCLC = system: HOP-92 NSCLC
# HT29 colon = system: HT29 colon
# SF-268 CNS = system: SF-268 CNS
# ACHN renal = system: ACHN renal
# NCI-H522 lung = system: NCI-H522 lung
# K-562 leukemia = system: K-562 leukemia
# KM12 colon = system: KM12 colon
# SR leukemia = system: SR leukemia
# A549 NSCLC = system: A549 NSCLC
# MCF7 breast = system: MCF7 breast
# COLO 205 colon = system: COLO 205 colon
# HL-60(TB) leukemia = system: HL-60(TB) leukemia
# MDA-MB-435 = system: MDA-MB-435
# SNB-19 CNS = system: SNB-19 CNS
# OVCAR-4 ovarian = system: OVCAR-4 ovarian
# NCI/ADR-RES ovarian = system: NCI/ADR-RES ovarian
# IGROV1 ovarian = system: IGROV1 ovarian
# NCI-H226 lung = system: NCI-H226 lung
# UACC-62 melanoma = system: UACC-62 melanoma
# HCT-15 colon = system: HCT-15 colon
# MDA-MB-231 breast = system: MDA-MB-231 breast
# A498 renal = system: A498 renal
# SK-MEL-28 melanoma = system: SK-MEL-28 melanoma
# 786-0 renal = system: 786-0 renal
# MALME-3M melanoma = system: MALME-3M melanoma
# OVCAR-5 ovarian = system: OVCAR-5 ovarian
# HCT-116 colon = system: HCT-116 colon
# HCC-2998 colon = system: HCC-2998 colon
# OVCAR-3 ovarian = system: OVCAR-3 ovarian
# PC-3 prostate = system: PC-3 prostate
# SK-MEL-5 melanoma = system: SK-MEL-5 melanoma
# EKVX NSCLC = system: EKVX NSCLC
# T-47D breast = system: T-47D breast
# NCI-H23 lung = system: NCI-H23 lung
# DU-145 prostate = system: DU-145 prostate
# CCRF-CEM leukemia = system: CCRF-CEM leukemia
# SF-295 CNS = system: SF-295 CNS
# TK-10 renal = system: TK-10 renal
# UO-31 renal = system: UO-31 renal
# LOX IMVI melanoma = system: LOX IMVI melanoma
# OVCAR-8 ovarian = system: OVCAR-8 ovarian
# SW-620 colon = system: SW-620 colon
# SF-539 CNS = system: SF-539 CNS
# RPMI-8226 leukemia = system: RPMI-8226 leukemia
# M14 melanoma = system: M14 melanoma
# HS 578T breast = system: HS 578T breast
# SK-OV-3 ovarian = system: SK-OV-3 ovarian
smiles,measurement,setting,value
CCOC(=O)C1C(=O)CC(C)(O)C(C(=O)OCC)C1c1ccc(N(C)C)cc1 (stereo not given),TGI,HOP-62 NSCLC,> 100 µM
same,TGI,NCI-H460 lung,> 100 µM
same,TGI,CAKI-1 renal,> 100 µM
same,TGI,MOLT-4 leukemia,> 100 µM
same,TGI,SK-MEL-2 melanoma,> 100 µM
same,TGI,BT-549 breast,> 100 µM
same,TGI,U251 CNS,> 100 µM
same,TGI,RXF 393 renal,> 100 µM
same,TGI,SN12C renal,> 100 µM
same,TGI,UACC-257 melanoma,> 100 µM
same,TGI,SNB-75 CNS,> 100 µM
same,TGI,HOP-92 NSCLC,> 100 µM
same,TGI,HT29 colon,> 100 µM
same,TGI,SF-268 CNS,> 100 µM
same,TGI,ACHN renal,> 100 µM
same,TGI,NCI-H522 lung,> 100 µM
same,TGI,K-562 leukemia,> 100 µM
same,TGI,KM12 colon,> 100 µM
same,TGI,SR leukemia,> 100 µM
same,TGI,A549 NSCLC,> 100 µM
same,TGI,MCF7 breast,> 100 µM
same,TGI,COLO 205 colon,> 100 µM
same,TGI,HL-60(TB) leukemia,> 100 µM
same,TGI,MDA-MB-435,> 100 µM
same,TGI,SNB-19 CNS,> 100 µM
same,TGI,OVCAR-4 ovarian,> 100 µM
same,TGI,NCI/ADR-RES ovarian,> 100 µM
same,TGI,IGROV1 ovarian,> 100 µM
same,TGI,NCI-H226 lung,> 100 µM
same,TGI,UACC-62 melanoma,> 100 µM
same,TGI,HCT-15 colon,> 100 µM
same,TGI,MDA-MB-231 breast,> 100 µM
same,TGI,A498 renal,> 100 µM
same,TGI,SK-MEL-28 melanoma,> 100 µM
same,TGI,786-0 renal,> 100 µM
same,TGI,MALME-3M melanoma,> 100 µM
same,TGI,OVCAR-5 ovarian,> 100 µM
same,TGI,HCT-116 colon,> 100 µM
same,TGI,HCC-2998 colon,> 100 µM
same,TGI,OVCAR-3 ovarian,> 100 µM
same,TGI,PC-3 prostate,> 100 µM
same,TGI,SK-MEL-5 melanoma,> 100 µM
same,TGI,EKVX NSCLC,> 100 µM
same,TGI,T-47D breast,> 100 µM
same,TGI,NCI-H23 lung,> 100 µM
same,TGI,DU-145 prostate,> 100 µM
same,TGI,CCRF-CEM leukemia,> 100 µM
same,TGI,SF-295 CNS,> 100 µM
same,TGI,TK-10 renal,> 100 µM
same,TGI,UO-31 renal,> 100 µM
same,TGI,LOX IMVI melanoma,> 100 µM
same,TGI,OVCAR-8 ovarian,> 100 µM
same,TGI,SW-620 colon,> 100 µM
C#C[C@@]1(O)[C@@H](CO)O[C@@H](n2cc(Cl)c3c(N)ncnc32)[C@@H]1O,GI50,HOP-62 NSCLC,0.254 µM
same,TGI,HOP-62 NSCLC,1.97 µM
same,GI50,NCI-H460 lung,< 0.0215 µM
same,TGI,NCI-H460 lung,0.412 µM
same,GI50,MOLT-4 leukemia,0.17 µM
same,TGI,MOLT-4 leukemia,> 26.4 µM
same,GI50,SK-MEL-2 melanoma,0.146 µM
same,TGI,SK-MEL-2 melanoma,0.481 µM
same,GI50,RXF 393 renal,0.299 µM
same,TGI,RXF 393 renal,0.813 µM
same,GI50,UACC-257 melanoma,0.347 µM
same,TGI,UACC-257 melanoma,> 79.9 µM
same,GI50,SF-539 CNS,0.324 µM
same,TGI,SF-539 CNS,1.45 µM
same,GI50,SNB-75 CNS,0.283 µM
same,TGI,SNB-75 CNS,0.714 µM
same,GI50,HOP-92 NSCLC,0.454 µM
same,TGI,HOP-92 NSCLC,3.53 µM
same,GI50,HT29 colon,0.0436 µM
same,GI50,RPMI-8226 leukemia,0.151 µM
same,TGI,RPMI-8226 leukemia,0.607 µM
same,GI50,SF-268 CNS,0.333 µM
same,TGI,SF-268 CNS,21.2 µM
same,GI50,M14 melanoma,0.177 µM
same,TGI,M14 melanoma,0.585 µM
same,GI50,NCI-H522 lung,0.134 µM
same,TGI,NCI-H522 lung,0.455 µM
same,GI50,K-562 leukemia,0.0993 µM
same,TGI,K-562 leukemia,> 100 µM
same,GI50,HS 578T breast,1.07 µM
same,TGI,HS 578T breast,> 26.5 µM
same,GI50,KM12 colon,0.142 µM
same,TGI,KM12 colon,> 100 µM
same,GI50,SK-OV-3 ovarian,0.143 µM
same,TGI,SK-OV-3 ovarian,0.517 µM
same,GI50,SR leukemia,0.073 µM
same,TGI,SR leukemia,> 100 µM
same,GI50,MCF7 breast,0.0264 µM
same,TGI,MCF7 breast,1.1 µM
same,GI50,COLO 205 colon,0.106 µM
same,TGI,COLO 205 colon,0.379 µM
same,GI50,HL-60(TB) leukemia,0.0341 µM
same,TGI,HL-60(TB) leukemia,0.197 µM
same,GI50,MDA-MB-435,0.166 µM
same,TGI,MDA-MB-435,2.4 µM
same,GI50,SNB-19 CNS,0.021 µM
same,TGI,SNB-19 CNS,0.294 µM
same,GI50,OVCAR-4 ovarian,0.323 µM
same,TGI,OVCAR-4 ovarian,3.34 µM
same,GI50,NCI/ADR-RES ovarian,0.0546 µM
same,TGI,NCI/ADR-RES ovarian,0.777 µM
same,GI50,IGROV1 ovarian,0.145 µM
same,TGI,IGROV1 ovarian,0.475 µM
same,GI50,NCI-H226 lung,0.508 µM
same,GI50,HCT-15 colon,0.143 µM
same,TGI,HCT-15 colon,> 100 µM
same,GI50,MDA-MB-231 breast,0.169 µM
same,TGI,MDA-MB-231 breast,0.951 µM
same,GI50,A498 renal,0.274 µM
same,TGI,A498 renal,0.659 µM
same,GI50,SK-MEL-28 melanoma,0.575 µM
same,TGI,SK-MEL-28 melanoma,71.5 µM
same,GI50,786-0 renal,0.322 µM
same,TGI,786-0 renal,1.33 µM
same,GI50,MALME-3M melanoma,0.241 µM
same,TGI,MALME-3M melanoma,3.18 µM
same,GI50,OVCAR-5 ovarian,0.425 µM
same,TGI,OVCAR-5 ovarian,> 84.2 µM
same,GI50,HCT-116 colon,0.0221 µM
same,TGI,HCT-116 colon,> 100 µM
same,GI50,HCC-2998 colon,0.186 µM
same,TGI,HCC-2998 colon,0.532 µM
same,GI50,OVCAR-3 ovarian,0.233 µM
same,TGI,OVCAR-3 ovarian,1.79 µM
same,GI50,PC-3 prostate,0.191 µM
same,TGI,PC-3 prostate,4 µM
same,GI50,EKVX NSCLC,0.261 µM
same,TGI,EKVX NSCLC,2.43 µM
same,GI50,T-47D breast,0.0573 µM
same,TGI,T-47D breast,0.489 µM
same,GI50,NCI-H23 lung,0.192 µM
same,TGI,NCI-H23 lung,0.957 µM
same,GI50,DU-145 prostate,0.131 µM
same,TGI,DU-145 prostate,> 52 µM
same,GI50,CCRF-CEM leukemia,0.248 µM
same,TGI,CCRF-CEM leukemia,> 100 µM
same,GI50,SF-295 CNS,0.202 µM
same,TGI,SF-295 CNS,3.2 µM
same,GI50,TK-10 renal,0.317 µM
same,TGI,TK-10 renal,1.24 µM
same,GI50,UO-31 renal,0.173 µM
same,TGI,UO-31 renal,1.78 µM
same,GI50,LOX IMVI melanoma,0.0541 µM
same,TGI,LOX IMVI melanoma,0.253 µM
same,GI50,OVCAR-8 ovarian,0.0336 µM
same,TGI,OVCAR-8 ovarian,1.48 µM
same,GI50,SW-620 colon,0.0709 µM
COc1ccccc1C1C2=C(COC2=O)OC(C)(C)Oc2cc3c(cc21)OCO3 (stereo not given),TGI,HOP-62 NSCLC,> 65.4 µM
same,TGI,NCI-H460 lung,> 40.3 µM
same,TGI,CAKI-1 renal,> 29.8 µM
same,TGI,MOLT-4 leukemia,> 100 µM
same,TGI,SK-MEL-2 melanoma,> 73.7 µM
same,TGI,U251 CNS,> 89.3 µM
same,TGI,RXF 393 renal,4.87 µM
same,TGI,SN12C renal,> 91.9 µM
same,TGI,UACC-257 melanoma,> 51.4 µM
same,TGI,SNB-75 CNS,8.42 µM
same,TGI,HOP-92 NSCLC,> 61.5 µM
same,TGI,HT29 colon,17.3 µM
same,TGI,RPMI-8226 leukemia,> 60.7 µM
same,TGI,SF-268 CNS,98.1 µM
same,TGI,M14 melanoma,> 85.1 µM
same,TGI,ACHN renal,> 94.1 µM
same,TGI,NCI-H522 lung,> 32 µM
same,TGI,K-562 leukemia,12.8 µM
same,TGI,HS 578T breast,> 100 µM
same,TGI,KM12 colon,11.4 µM
same,TGI,SK-OV-3 ovarian,> 100 µM
same,TGI,SR leukemia,> 100 µM
same,TGI,A549 NSCLC,> 100 µM
same,TGI,MCF7 breast,> 31 µM
same,TGI,COLO 205 colon,7.5 µM
same,TGI,HL-60(TB) leukemia,7.8 µM
same,TGI,SNB-19 CNS,58.2 µM
same,TGI,OVCAR-4 ovarian,> 100 µM
same,TGI,NCI/ADR-RES ovarian,> 30.8 µM
same,TGI,IGROV1 ovarian,> 87.1 µM
same,TGI,NCI-H226 lung,> 24.8 µM
same,TGI,UACC-62 melanoma,> 25.4 µM
same,TGI,HCT-15 colon,> 100 µM
same,TGI,MDA-MB-231 breast,> 32.6 µM
same,TGI,A498 renal,24.7 µM
same,TGI,SK-MEL-28 melanoma,72.1 µM
same,TGI,786-0 renal,> 68.8 µM
same,TGI,MALME-3M melanoma,> 100 µM
same,TGI,OVCAR-5 ovarian,> 100 µM
same,TGI,HCT-116 colon,> 36.1 µM
same,TGI,HCC-2998 colon,> 100 µM
same,TGI,OVCAR-3 ovarian,13.3 µM
same,TGI,PC-3 prostate,> 29.7 µM
same,TGI,SK-MEL-5 melanoma,21 µM
same,TGI,EKVX NSCLC,26.7 µM
same,TGI,T-47D breast,> 100 µM
same,TGI,NCI-H23 lung,> 59.2 µM
same,TGI,DU-145 prostate,> 100 µM
same,TGI,CCRF-CEM leukemia,> 100 µM
same,TGI,SF-295 CNS,> 45.6 µM
same,TGI,TK-10 renal,> 28.8 µM
same,TGI,UO-31 renal,> 100 µM
same,TGI,LOX IMVI melanoma,> 44.2 µM
same,TGI,OVCAR-8 ovarian,> 100 µM
same,TGI,SW-620 colon,> 49.8 µM

# — PubChem BioAssay (NCI)
